Data: patent publication EP3037527A1, “Sialyltransferase without CMP-dependent sialidase activity” (F. Hoffmann-La Roche AG, priority 2014, dated 2016)

How the values were obtained:
[1] = target: T1, α-2,6-sialyltransferase from rat liver (Rattus norvegicus, UniProt P13721); conditions: each inhibitor tested at a concentration of 0.25 mM; cited from earlier work
T1 construct: host or cells: rat liver
T1 sequence (P13721 1-403): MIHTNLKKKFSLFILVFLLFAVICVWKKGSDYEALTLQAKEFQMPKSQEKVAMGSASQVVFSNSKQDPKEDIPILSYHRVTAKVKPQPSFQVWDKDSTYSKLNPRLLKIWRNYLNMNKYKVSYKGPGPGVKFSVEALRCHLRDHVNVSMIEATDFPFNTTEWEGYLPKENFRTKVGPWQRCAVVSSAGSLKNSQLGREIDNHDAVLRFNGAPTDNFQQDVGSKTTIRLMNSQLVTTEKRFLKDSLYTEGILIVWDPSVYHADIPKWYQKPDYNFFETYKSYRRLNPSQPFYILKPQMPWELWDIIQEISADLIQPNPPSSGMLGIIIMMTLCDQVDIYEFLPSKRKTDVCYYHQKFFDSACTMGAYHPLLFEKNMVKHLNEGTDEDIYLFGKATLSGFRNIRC

Δ89 hST6Gal-I = target: T2, Δ89 hST6Gal-I (Homo sapiens, UniProt P15907); assay: Inhibition of sialidase activity of Δ89 hST6Gal-I by CTP; assay type: biochemical
T2 construct: Erythropoietin signal peptide (Epo) (N, cleaved yes); AP spacer (two amino acids) (N, cleaved yes); made in house; host or cells: HEK 293 cells (transient expression, secreted)
T2 sequence (P15907 90-406): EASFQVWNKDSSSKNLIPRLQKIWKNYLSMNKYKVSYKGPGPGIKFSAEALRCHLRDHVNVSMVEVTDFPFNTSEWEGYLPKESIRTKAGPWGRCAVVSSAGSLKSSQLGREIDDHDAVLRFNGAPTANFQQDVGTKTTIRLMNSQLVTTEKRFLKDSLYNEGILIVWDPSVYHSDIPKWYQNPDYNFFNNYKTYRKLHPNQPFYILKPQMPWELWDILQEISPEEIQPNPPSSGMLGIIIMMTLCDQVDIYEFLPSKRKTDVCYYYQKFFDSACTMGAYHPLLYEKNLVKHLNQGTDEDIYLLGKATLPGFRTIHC
Method: A highly galactosylated humanized monoclonal antibody IgG4 MAB was used in sialylation experiments. The reaction mixture contained IgG4 MAB (300 µg in 55 µL 35 mM sodium actetate/Tris buffer pH 7.0), the donor substrate CMP-NANA (150 µg in 50 µL water) and sialyltransferase (30 µg Δ89 hST6Gal-I in 20 mM potassium phosphate, 0.1 M NaCl, pH 6.5). The samples were incubated at 37°C for a defined time. To stop the reaction the samples were frozen at -20°C. For mass analysis 100 µL denaturing buffer (6 M guanidinium chloride) and 30 µL TCEP (= tris(2-carboxyethyl)phosphine; 0.1 mM, diluted in denaturing buffer) were added to the samples and the samples were incubated at 37°C for 1 h. The samples were buffered in electrospray medium [20% ACN (= acetonitrile), 1% FA (= […])] using pre-equilibrated illustra™ Nap5-Columns (GE-Healthcare). Samples were analyzed by electrospray ionization mass spectrometry and the content of G2+0SA, G2+1SA and G2+2SA N-glycans was determined. A Micromass Q-Tof Ultima and a Synapt G2 HDMS device (Waters UK) were used, the software used was MassLynx V 4.1. […]
The compound cytidine-5'-triphosphate (CTP) is a known potent inhibitor of sialyltransferases (Scudder PR & Chantler EN BBA 660 (1981) 136-141). […] At different times samples were taken and the content of G2+0SA, G2+1SA and G2+2SA was determined by mass spectrometry. […]

Row | SMILES | inhibition of α-2,6-sialyltransferase [1] [%] | degradation of G2+2SA caused by the sialidase activity (Δ89 hST6Gal-I; CTP 0.67 mM, compared to inhibitor-free conditions) | G2+2SA still present (Δ89 hST6Gal-I; after 72 h of incubation, CTP added after 7 h, final concentration 0.67 mM) [%]
1 | Nc1ccn([C@@H]2O[C@H](CO)[C@@H](O)[C@H]2OP(=O)(O)O)c(=O)n1 [2'-CMP] | 40 | – | –
2 | Nc1ccn([C@@H]2O[C@H](CO)[C@@H](OP(=O)(O)O)[C@H]2O)c(=O)n1 [3'-CMP] | 39 | – | –
3 | Nc1ccn([C@@H]2O[C@H](COP(=O)(O)O)[C@@H](O)[C@H]2O)c(=O)n1 [5'-CMP, Cytidine monophosphate] | 71 | – | –
4 | Nc1ccn([C@@H]2O[C@H](COP(=O)(O)OP(=O)(O)OP(=O)(O)O)[C@@H](O)[C@H]2O)c(=O)n1 [CTP, cytidine-5'-triphosphate] | – | significantly reduced | 73
5 | Nc1ccn([C@@H]2O[C@H](CO)[C@@H](O)[C@H]2O)c(=O)n1 [Cytidine] | 70 | – | –
